These results are taken from paper PMC5803215, “Structural basis for amino acid transport by the CAT family of SLC7 transporters” (Nature Communications, 2018).

Numbering of substitutions follows the chain as printed.

For assay [1], the target named is T1, GkApcT (Geobacillus kaustophilus, UniProt Q5L1G5, K191R).
T1 construct: gene GK0930; cleavable GFP-His tag (pWaldo-GFP) removed with TEV; expressed in E. coli C43(DE3); co-purifies with E. coli MgtS; purified in DM/DDM, reconstituted in POPE:POPG liposomes
T1 sequence (Q5L1G5 entry or part of it K191R): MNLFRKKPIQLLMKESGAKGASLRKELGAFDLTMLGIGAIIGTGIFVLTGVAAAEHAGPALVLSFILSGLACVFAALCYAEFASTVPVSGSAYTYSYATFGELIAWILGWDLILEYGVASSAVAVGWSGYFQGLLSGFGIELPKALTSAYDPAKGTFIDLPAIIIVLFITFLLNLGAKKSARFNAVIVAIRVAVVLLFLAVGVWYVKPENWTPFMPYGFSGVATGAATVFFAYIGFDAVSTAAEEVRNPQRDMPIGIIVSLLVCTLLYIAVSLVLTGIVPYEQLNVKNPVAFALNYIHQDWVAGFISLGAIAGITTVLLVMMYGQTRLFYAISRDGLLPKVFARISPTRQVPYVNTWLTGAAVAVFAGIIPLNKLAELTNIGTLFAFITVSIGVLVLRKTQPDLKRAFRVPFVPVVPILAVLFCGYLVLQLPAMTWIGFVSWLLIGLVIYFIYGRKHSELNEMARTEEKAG
Briefly: thermal stability (nanoDSF). The assay is classed as binding. The following applies: 10 mM L-Ala; pH 6.0. On the technique in general: Differential scanning fluorimetry follows unfolding on heating by fluorescence.

Assay [2] concerns the target T2, GkApcT (Geobacillus kaustophilus, UniProt Q5L1G5, K191N).
T2 construct: gene GK0930; cleavable GFP-His tag (pWaldo-GFP) removed with TEV; expressed in E. coli C43(DE3); co-purifies with E. coli MgtS; purified in DM/DDM, reconstituted in POPE:POPG liposomes
Put plainly: thermal stability (nanoDSF). The assay is classed as binding. The following applies: 10 mM L-Ala; pH 6.0.

Assay [3] has as its target T3, GkApcT (Geobacillus kaustophilus, UniProt Q5L1G5).
T3 construct: gene GK0930; cleavable GFP-His tag (pWaldo-GFP) removed with TEV; expressed in E. coli C43(DE3); co-purifies with E. coli MgtS; purified in DM/DDM, reconstituted in POPE:POPG liposomes
T3 sequence (Q5L1G5 1-471): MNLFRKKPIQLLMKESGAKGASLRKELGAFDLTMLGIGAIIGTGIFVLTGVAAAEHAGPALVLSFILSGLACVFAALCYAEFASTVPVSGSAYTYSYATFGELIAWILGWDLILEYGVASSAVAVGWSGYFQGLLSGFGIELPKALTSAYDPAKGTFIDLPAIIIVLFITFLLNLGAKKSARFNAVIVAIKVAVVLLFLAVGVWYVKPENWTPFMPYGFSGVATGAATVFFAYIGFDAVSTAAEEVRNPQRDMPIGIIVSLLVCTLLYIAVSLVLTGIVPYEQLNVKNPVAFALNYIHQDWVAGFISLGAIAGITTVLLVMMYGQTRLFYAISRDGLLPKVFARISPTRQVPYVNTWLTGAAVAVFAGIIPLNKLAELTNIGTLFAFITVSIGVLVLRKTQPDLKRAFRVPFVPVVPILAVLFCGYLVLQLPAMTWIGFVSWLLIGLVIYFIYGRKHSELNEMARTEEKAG
Briefly: thermal stability (nanoDSF). The assay is classed as binding. As to conditions: 10 mM L-Ala; pH 6.0.

The target in assay [4] is T4, GkApcT (Geobacillus kaustophilus, UniProt Q5L1G5, E115Q).
T4 construct: gene GK0930; cleavable GFP-His tag (pWaldo-GFP) removed with TEV; expressed in E. coli C43(DE3); co-purifies with E. coli MgtS; purified in DM/DDM, reconstituted in POPE:POPG liposomes
T4 sequence (Q5L1G5 entry or part of it E115Q): as the sequence (Q5L1G5 entry or part of it K191R) above, with E115Q, R191K counted along it
Put plainly: thermal stability (nanoDSF). As to conditions: 10 mM L-Ala; pH 6.0. The assay is classed as binding.

Assay [5] addresses T3, GkApcT. Put plainly: electrogenic 3H-L-Ala uptake competition in proteoliposomes. The format is biochemical.
The target in assay [6] is T5, GkApcT (Geobacillus kaustophilus, UniProt Q5L1G5, K191A).
T5 construct: gene GK0930; cleavable GFP-His tag (pWaldo-GFP) removed with TEV; expressed in E. coli C43(DE3); co-purifies with E. coli MgtS; purified in DM/DDM, reconstituted in POPE:POPG liposomes
T5 sequence (Q5L1G5 entry or part of it K191A): as the sequence (Q5L1G5 entry or part of it K191R) above, with R191A counted along it
Put plainly: thermal stability (nanoDSF). The assay is classed as binding. The following applies: 10 mM L-Ala; pH 6.0.

The target of assay [7] is T6, GkApcT (Geobacillus kaustophilus, UniProt Q5L1G5, R334E).
T6 construct: gene GK0930; cleavable GFP-His tag (pWaldo-GFP) removed with TEV; expressed in E. coli C43(DE3); co-purifies with E. coli MgtS; purified in DM/DDM, reconstituted in POPE:POPG liposomes
T6 sequence (Q5L1G5 entry or part of it R334E): as the sequence (Q5L1G5 entry or part of it K191R) above, with R191K, R334E counted along it
Briefly: electrogenic 3H-L-Ala uptake competition in proteoliposomes. The format is biochemical.

In assay [8] the target is T7, GkApcT (Geobacillus kaustophilus, UniProt Q5L1G5, M321S).
T7 construct: gene GK0930; cleavable GFP-His tag (pWaldo-GFP) removed with TEV; expressed in E. coli C43(DE3); co-purifies with E. coli MgtS; purified in DM/DDM, reconstituted in POPE:POPG liposomes
T7 sequence (Q5L1G5 1-471 M321S): T3 sequence (Q5L1G5 1-471) with M321S
The description is as above. The format is biochemical.

The target of assay [9] is T8, GkApcT-MgtS heterodimer (Geobacillus kaustophilus, UniProt A5A616+Q5L1G5).
T8 construct: gene GK0930; heterodimer of G. kaustophilus GkApcT with host-derived E. coli MgtS (YneM); GFP-His tag cut with TEV; expressed in E. coli C43(DE3)
T8 sequence (Q5L1G5 1-471): T3 sequence (Q5L1G5 1-471)
T8 sequence (A5A616 1-31): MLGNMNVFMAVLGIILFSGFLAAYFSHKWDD
Briefly: thermal stability (circular dichroism). The assay is classed as binding. As to conditions: pH 6.5. (CD spectra are sensitive to the conformation of chiral molecules.)

Assay [10] addresses T8, GkApcT-MgtS heterodimer. Put plainly: X-ray crystal structure. The format is binding. The following applies: site between GkApcT TM5 and MgtS; cholesterol-doped monoolein LCP.

T2 sequence (Q5L1G5 entry or part of it K191N): as the sequence (Q5L1G5 entry or part of it K191R) above, with R191N counted along it

Usually IC50 stands for the concentration needed to halve the response being measured. Low values mean higher potency, high ones lower potency. Take `C[C@H](N)C(=O)O` [L-Alanine]: the dTm result at GkApcT [1] is “A similar stabilising effect was also observed in the Lys191Ala, Arg and Asn variants”; at GkApcT [2], “A similar stabilising effect was also observed in the Lys191Ala, Arg and Asn variants”; at GkApcT [4], “Glu115Gln variant can still recognise alanine to the same extent as wild-type protein”; at GkApcT [6] it was “A similar stabilising effect was also observed in the Lys191Ala, Arg and Asn variants”. The Tm with ligand at GkApcT [3] is reported as ~58 to ~69. The IC50 at GkApcT [5] amounted to 2 µM; at GkApcT [7] it was 0.4 µM.
Turning to `N=C(N)NCCC[C@H](N)C(=O)O` [L-arginine], the results for the concentration for half-maximal inhibition (IC50) at GkApcT [5] and on GkApcT [8] were 6000 µM and 11.4 µM, respectively.
With `CC(C)CCC[C@@H](C)[C@H]1CC[C@H]2[C@@H]3CC=C4C[C@@H](OC(=O)CCC(=O)O)CC[C@]4(C)[C@H]3CC[C@]12C` [cholesterol hemisuccinate], the Tm with ligand on GkApcT-MgtS heterodimer [9] lay within 57 to 72 °C.
As to `CC(C)CCC[C@@H](C)[C@H]1CC[C@H]2[C@@H]3CC=C4C[C@@H](O)CC[C@]4(C)[C@H]3CC[C@]12C` [cholesterol], the X-ray crystal structure entry on GkApcT-MgtS heterodimer [10] is “we observed density for a cholesterol molecule in this pocket”.
